{"source": "patent US11497766B2", "about": "“Compositions and methods for treating or preventing diseases associated with oxidative stress” (CXL OPHTHALMICS, LLC, priority 2012, dated 2022)", "test_system": "eyes", "assay": "Corneal collagen cross-linking with riboflavin and sodium iodide; post-operative corneal haze", "assay_type": "in vivo", "details": "corneal collagen cross-linking utilizing 0.5% riboflavin and 0.015% (1 mmol) sodium iodide; over 200 eyes; compared to historical cross-linking procedures performed without sodium iodide", "method": "Corneal collagen cross-linking utilizing 0.5% riboflavin and 0.015% (1 mmol) sodium iodide was performed in over 200 eyes."}
{"smiles": "[I-].[Na+]", "note": "[sodium iodide]", "values": [{"measurement": "Post-operative corneal haze", "result": "minimal"}]}
